Like-named read-outs stand apart in the source and are kept apart here.
Target: CBP (Homo sapiens (Human), UniProt Q92793)
Assay: In vitro CBP inhibition (AlphaScreen, biotinylated H4-tetraacetyl peptide)
Format: binding
How it was run: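 His-tagged CBP expressed in E. coli (50 nM final) incubated with biotinylated H4K5/8/12/16(Ac) peptide (20 nM final) in 50 mM HEPES pH 7.3, 10 mM NaCl, 0.25 mM TCEP, 0.1% BSA, 0.005% Brij-35, 0.4% DMSO, 20 min at room temp.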

[1] = AlphaScreen, Table 29, read-out: CBP IC50

Sequence of CBP (Q92793 1081-1197): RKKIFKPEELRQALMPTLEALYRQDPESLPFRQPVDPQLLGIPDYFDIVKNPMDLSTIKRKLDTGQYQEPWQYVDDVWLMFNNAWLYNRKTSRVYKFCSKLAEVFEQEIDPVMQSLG

Structure (SMILES)	IC50 [1] [nM]	IC50 [nM]
Cn1cc(-c2cn(C)c(=O)cc2C2CCCC2)cn1 [Example 142, 4-cyclopentyl-1-methyl-5-(1-methyl-1H-pyrazol-4-yl) pyridin-2(1H)-one]	500 to 5000	
Cn1cc(-c2cn(C)c(=O)cc2C2CCCCC2)cn1 [Example 143, 4-cyclohexyl-1-methyl-5-(1-methyl-1H-pyrazol-4-yl)pyridin-2 (1H)-one]	500 to 5000	
Cn1cc(-c2cn(C)c(=O)cc2C2CC2)cn1 [Example 144, 4-cyclopropyl-1-methyl-5-(1-methyl-1H-pyrazol-4-yl) pyridin-2(1H)-one]	< 500	
Cc1nn(C)c(C)c1-c1cn(C)c(=O)cc1-c1ccccc1 [Example 145, 1-methyl-4-phenyl-5-(1,3,5-tri-methyl-1H-pyrazol-4-yl) pyridin-2(1H)-one]	500 to 5000	
Cn1cc(-c2cnn(CC3CC3)c2)c(-c2ccc(Cl)cc2)cc1=O [Example 153, 4-(4-chloro-phenyl)-5-(1-cyclopropylmethyl-1H-pyrazol-4-yl)-1-methyl-1H-pyridin-2-one]	< 500	
Cn1cc(-c2cnn(CC3CC3)c2)c(-c2ccc(C#N)cc2)cc1=O [Example 156, 4-[5-(1-cyclopropyl-methyl-1H-pyrazol-4-yl)-1-methyl-2-oxo-1,2-dihydro-pyridin-4-yl]-benzonitrile]		500 to 5000
Cn1cc(-c2cnn3c2CCC3)c(-c2ccccc2)cc1=O [Example 162, 5-(5,6-dihydro-4H-pyrrolo[1,2-b]pyrazol-3-yl)-1-methyl-4-phenylpyridin-2(1H)-one]	< 500	
Cc1c(-c2cn(C)c(=O)cc2-c2ccccc2)cnn1C [Example 164, 5-(1,5-dimethyl-1H-pyrazol-4-yl)-1-methyl-4-phenylpyridin-2(1H)-one]	500 to 5000	
CCOc1cc(=O)n(C)cc1-c1cnn(CC2CC2(F)F)c1 (centres unmarked) [Example 171, 5-[1-(2,2-Difluoro-cyclopropylmethyl)-1H-pyrazol-4-yl]-4-ethoxy-1-methyl-1H-pyridin-2-one]	< 500	
Cn1cc(-c2cnn(Cc3ccccc3)c2)c(N2CC[C@@H](NS(=O)(=O)C(F)(F)F)C2)cc1=O [Example 173, (R)-N-(1-(5-(1-benzyl-1H-pyrazol-4-yl)-1-methyl-2-oxo-1,2-dihydropyridin-4-yl)pyrrolidin-3-yl)-1,1,1-trifluoromethanesulfonamide]	500 to 5000	
Cn1cc(-c2cnn(Cc3ccccc3)c2)c(N2CC[C@@H](NS(C)(=O)=O)C2)cc1=O [Example 174, (R)-N-(1-(5-(1-benzyl-1H-pyrazol-4-yl)-1-methyl-2-oxo-1,2-dihydropyridin-4-yl)pyrrolidin-3-yl)methanesulfonamide]	500 to 5000	
COc1cc(=O)n(C)cc1-c1cnn(C(C)c2ccccc2)c1 (centres unmarked) [Example 175, 4-methoxy-1-methyl-5-(1-(1-phenylethyl)-1H-pyrazol-4-yl) pyridin-2(1H)-one]	< 500	
CCOc1cc(=O)n(C)cc1-c1cnn(-c2cccc(C(C)C)c2C#N)c1 [Example 176, 2-[4-(4-Ethoxy-1-methyl-6-oxo-1,6-dihydro-pyridin-3-yl)-pyrazol-1-yl]-6-isopropyl-benzonitrile]	< 500	
CCOc1cc(=O)n(C)cc1-c1cnn(-c2cccc(OC)c2C#N)c1 [Example 177, 2-[4-(4-Ethoxy-1-methyl-6-oxo-1,6-dihydro-pyridin-3-yl)-pyrazol-1-yl]-6-methoxy-benzonitrile]	< 500	
CCOc1cc(=O)n(C)cc1-c1cnn(-c2cccc(Cl)c2C#N)c1 [Example 178, 2-Chloro-6-[4-(4-ethoxy-1-methyl-6-oxo-1,6-dihydro-pyridin-3-yl)-pyrazol-1-yl]-benzonitrile]	< 500	
CCOc1cc(=O)n(C)cc1-c1cnn(-c2cccc(C)c2C#N)c1 [Example 179, 2-[4-(4-Ethoxy-1-methyl-6-oxo-1,6-dihydro-pyridin-3-yl)-pyrazol-1-yl]-6-methyl-benzonitrile]	< 500	
CCOc1cc(=O)n(C)cc1-c1cnn(-c2ccccc2S(C)(=O)=O)c1 [Example 180, 4-Ethoxy-5-[1-(2-methanesulfonyl-phenyl)-1H-pyrazol-4-yl]-1-methyl-1H-pyridin-2-one]	< 500	
CCOc1cc(=O)n(C)cc1-c1cnn(C2CCCN(S(C)(=O)=O)C2)c1 (centres unmarked) [Example 181, 4-ethoxy-1-methyl-5-(1-(1-(methylsulfonyl)piperidin-3-yl)-1H-pyrazol-4-yl)pyridin-2(1H)-one]	< 500	
CCOc1cc(=O)n(C)cc1-c1cnn(-c2cc(OC)ccc2C#N)c1 [Example 182, 2-[4-(4-Ethoxy-1-methyl-6-oxo-1,6-dihydro-pyridin-3-yl)-pyrazol-1-yl]-4-methoxy-benzonitrile]	< 500	
CCOc1cc(=O)n(C)cc1-c1cnn(-c2cc(Oc3ccccc3)ccc2C#N)c1 [Example 183, 2-[4-(4-Ethoxy-1-methyl-6-oxo-1,6-dihydro-pyridin-3-yl)-pyrazol-1-yl]-4-phenoxy-benzonitrile]	< 500	

Further lines, with some results ahead:

IC50 [1] [nM]	Structure (SMILES)	IC50 [nM]
< 500	CC(C)n1cc(-c2cn(C)c(=O)cc2-c2ccccc2)cn1 [Example 138, 5-(1-isopropyl-1H-pyrazol-4-yl)-1-methyl-4-phenylpyridin-2(1H)-one]	
< 500	CCCn1cc(-c2cn(C)c(=O)cc2-c2ccccc2)cn1 [Example 139, 1-methyl-4-phenyl-5-(1-propyl-1H-pyrazol-4-yl)pyridin-2(1H)-one]	
< 500	COC(=O)Cn1cc(-c2cn(C)c(=O)cc2-c2ccccc2)cn1 [Example 140, methyl 2-(4-(1-methyl-6-oxo-4-phenyl-1,6-dihydropyridin-3-yl)-1H-pyrazol-1-yl)acetate]	
< 500	CCCNC(=O)Cn1cc(-c2cn(C)c(=O)cc2-c2ccccc2)cn1 [Example 141, 2-(4-(1-methyl-6-oxo-4-phenyl-1,6-dihydro-pyridin-3-yl)-1H-pyrazol-1-yl)-N-propylacetamide]	
< 500	Cn1cc(-c2cnn(CC3CC3)c2)c(-c2ccccc2)cc1=O [Example 146, 5-(1-(cyclopropyl-methyl)-1H-pyrazol-4-yl)-1-methyl-4-phenyl-pyridin-2(1H)-one]	
< 500	Cn1cc(-c2cnn(Cc3ccccc3)c2)c(-c2ccc(F)cc2)cc1=O [Example 149, 5-(1-benzyl-1H-pyrazol-4-yl)-4-(4-fluorophenyl)-1-methyl-pyridin-2(1H)-one]	
< 500	Cn1cc(-c2cnn(Cc3ccccc3)c2)c(-c2ccc(C#N)cc2)cc1=O [Example 150, 4-(5-(1-benzyl-1H-pyrazol-4-yl)-1-methyl-2-oxo-1,2-dihydro-pyridin-4-yl)benzonitrile]	
< 500	Cn1cc(-c2cnn(Cc3ccccc3)c2)c(-c2ccc(C(N)=O)cc2)cc1=O [Example 151, 4-(5-(1-benzyl-1H-pyrazol-4-yl)-1-methyl-2-oxo-1,2-dihydro-pyridin-4-yl)benzamide]	
< 500	Cn1cc(-c2cnn(Cc3ccccc3)c2)c(-c2cn[nH]c2)cc1=O [Example 152, 5-(1-benzyl-1H-pyrazol-4-yl)-1-methyl-4-(1H-pyrazol-4-yl) pyridin-2(1H)-one]	
< 500	Cn1cc(-c2cnn(Cc3ccccc3)c2)c(-c2ccc(C(=O)O)cc2)cc1=O [Example 155, 4-(5-(1-benzyl-1H-pyrazol-4-yl)-1-methyl-2-oxo-1,2-dihydropyridin-4-yl)benzoic acid]	
< 500	Cn1cc(-c2cnn(Cc3ccccc3)c2)c(-c2cnn(CC(N)=O)c2)cc1=O [Example 158, 2-(4-(5-(1-benzyl-1H-pyrazol-4-yl)-1-methyl-2-oxo-1,2-dihydro-pyridin-4-yl)-1H-pyrazol-1-yl)acetamide]	
< 500	Cn1cc(-c2cnn(Cc3ccccc3)c2)c(-c2cnn(C(F)F)c2)cc1=O [Example 160, 5-(1-benzyl-1H-pyrazol-4-yl)-4-(1-(difluoromethyl)-1H-pyrazol-4-yl)-1-methylpyridin-2(1H)-one]	
< 500	Cn1cc(-c2cnn(Cc3ccccc3)c2)c(-c2cnn(CC(C)(C)O)c2)cc1=O [Example 161, 5-(1-benzyl-1H-pyrazol-4-yl)-4-(1-(2-hydroxy-2-methylpropyl)-1H-pyrazol-4-yl)-1-methyl-pyridin-2(1H)-one]	
< 500	Cn1cc(-c2cnn(Cc3ccccc3)c2)c(-c2cnn(CC#N)c2)cc1=O [Example 163, 2-(4-(5-(1-benzyl-1H-pyrazol-4-yl)-1-methyl-2-oxo-1,2-dihydropyridin-4-yl)-1H-pyrazol-1-yl)acetonitrile]	
< 500	CCCOc1cc(=O)n(C)cc1-c1cnn(Cc2ccccc2)c1 [Example 165, 5-(1-Benzyl-1H-pyrazol-4-yl)-1-methyl-4-propoxy-1H-pyridin-2-one]	
< 500	Cn1cc(-c2cnn(Cc3ccccc3)c2)c(OCCC(=O)O)cc1=O [Example 166, 3-[5-(1-Benzyl-1H-pyrazol-4-yl)-1-methyl-2-oxo-1,2-dihydro-pyridin-4-yloxy]-propionic acid]	
< 500	Cn1cc(-c2cnn(Cc3ccccc3)c2)c(OCC#N)cc1=O [Example 167, [5-(1-Benzyl-1H-pyrazol-4-yl)-1-methyl-2-oxo-1,2-dihydro-pyridin-4-yloxy]-acetonitrile]	
< 500	CCSc1cc(=O)n(C)cc1-c1cnn(Cc2ccccc2)c1 [Example 168, 5-(1-Benzyl-1H-pyrazol-4-yl)-4-ethylsulfanyl-1-methyl-1H-pyridin-2-one]	
< 500	Cn1cc(-c2cnn(Cc3ccccc3)c2)c(SCC(=O)O)cc1=O [Example 169, [5-(1-Benzyl-1H-pyrazol-4-yl)-1-methyl-2-oxo-1,2-dihydro-pyridin-4-ylsulfanyl]-acetic acid]	
< 500	CNOc1cc(=O)n(C)cc1-c1cnn(Cc2ccccc2)c1 [Example 170, 5-(1-benzyl-1H-pyrazol-4-yl)-1-methyl-4-((methylamino)oxy)pyridin-2(1H)-one]	
< 500	CNS(=O)(=O)C1CCN(c2cc(=O)n(C)cc2-c2cnn(Cc3ccccc3)c2)C1 (centres unmarked) [Example 172, 1-(5-(1-benzyl-1H-pyrazol-4-yl)-1-methyl-2-oxo-1,2-dihydropyridin-4-yl)-N-methylpyrrolidine-3-sulfonamide]	
